What all share (assay): Test A preemergence
Assay type in all cases: in vivo

In one assay the test system is Kochia (Kochia scoparia). The conditions noted are these: Bassia scoparia, pre-emergence, 240 h; for pest or weed control at 125 g/ha: 125 g ai/ha; for pest or weed control at 500 g/ha: 500 g ai/ha. Summed up: (§1)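 Preemergence soil spray on seeded pots or post-emergence spray on 1–2 leaf plants, in loam–sand blend. Greenhouse ~10 d. Visual rating 0–100 against untreated plants.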

The subject of assay [1] is barnyardgrass (Echinochloa crus-galli). As to conditions: Echinochloa crus-galli, pre-emergence, 240 h; for pest or weed control at 125 g/ha: 125 g ai/ha; for pest or weed control at 500 g/ha: 500 g ai/ha. Summed up:
as §1

In assay [2] the test system is giant foxtail (Setaria faberii). The conditions noted are these: Setaria faberi, pre-emergence, 240 h; for pest or weed control at 125 g/ha: 125 g ai/ha; for pest or weed control at 500 g/ha: 500 g ai/ha. In a few lines:
as §1

The test system of assay [3] is ragweed (common ragweed, Ambrosia elatior). The conditions noted are these: Ambrosia artemisiifolia, pre-emergence, 240 h; for pest or weed control at 125 g/ha: 125 g ai/ha; for pest or weed control at 500 g/ha: 500 g ai/ha. Summed up: as §1
Assay [4] relates to ryegrass, Italian (Italian ryegrass, Lolium multiflorum). The conditions noted are these: Lolium multiflorum, pre-emergence, 240 h; for pest or weed control at 125 g/ha: 125 g ai/ha; for pest or weed control at 500 g/ha: 500 g ai/ha. Summed up: as §1
The mark [5] stands for this setting: Preemergence, visual injury rating after approximately 10 d, read-out: Kochia plant response rating (0 to 100 scale, 0 is no effect, 100 is complete control).
[6] abbreviates: preemergence, visual injury rating about 10 d after treatment, 0 to 100 scale (0 no effect, 100 complete control), read-out: Kochia plant response rating.
Setting [7] is: Preemergence, visual injury rating after approximately 10 d, read-out: Barnyardgrass plant response rating (0 to 100 scale, 0 is no effect, 100 is complete control).
Setting [8] is: preemergence, visual injury rating about 10 d after treatment, 0 to 100 scale (0 no effect, 100 complete control), read-out: Barnyardgrass plant response rating.
Where [9] appears, read: Preemergence, visual injury rating after approximately 10 d, read-out: Foxtail, Giant plant response rating (0 to 100 scale, 0 is no effect, 100 is complete control).
The mark [10] stands for this setting: preemergence, visual injury rating about 10 d after treatment, 0 to 100 scale (0 no effect, 100 complete control), read-out: Foxtail, Giant plant response rating.
Setting [11] is: Preemergence, visual injury rating after approximately 10 d, read-out: Ragweed plant response rating (0 to 100 scale, 0 is no effect, 100 is complete control).
[12] abbreviates: preemergence, visual injury rating about 10 d after treatment, 0 to 100 scale (0 no effect, 100 complete control), read-out: Ragweed plant response rating.
Setting [13] is: Preemergence, visual injury rating after approximately 10 d, read-out: Ryegrass, Italian plant response rating (0 to 100 scale, 0 is no effect, 100 is complete control).
Setting [14] is: preemergence, visual injury rating about 10 d after treatment, 0 to 100 scale (0 no effect, 100 complete control), read-out: Ryegrass, Italian plant response rating.
[15] abbreviates: preemergence, 0 to 100 scale where 0 is no effect and 100 is complete control, approx. 10 d, read-out: Kochia plant response rating.
[16] abbreviates: preemergence, 0 to 100 scale where 0 is no effect and 100 is complete control, read-out: Kochia plant response rating.
The mark [17] stands for this setting: preemergence, 0 to 100 scale where 0 is no effect and 100 is complete control, approx. 10 d, read-out: Barnyardgrass plant response rating.
Where [18] appears, read: preemergence, 0 to 100 scale where 0 is no effect and 100 is complete control, approx. 10 d, read-out: Foxtail, Giant plant response rating.
The mark [19] stands for this setting: preemergence, 0 to 100 scale where 0 is no effect and 100 is complete control, read-out: Foxtail, Giant plant response rating.
Where [20] appears, read: preemergence, 0 to 100 scale where 0 is no effect and 100 is complete control, approx. 10 d, read-out: Ragweed plant response rating.
Setting [21] is: preemergence, 0 to 100 scale where 0 is no effect and 100 is complete control, read-out: Ragweed plant response rating.
Where [22] appears, read: preemergence, 0 to 100 scale where 0 is no effect and 100 is complete control, approx. 10 d, read-out: Ryegrass, Italian plant response rating.
[23] abbreviates: preemergence, 0 to 100 scale where 0 is no effect and 100 is complete control, read-out: Ryegrass, Italian plant response rating.
Setting [24] is: preemergence, 0 to 100 scale where 0 is no effect and 100 is complete control, read-out: Barnyardgrass plant response rating.
[25] abbreviates: Preemergence, visual injury vs untreated controls after approximately 10 d, read-out: Kochia plant response rating (0 to 100 scale where 0 is no effect and 100 is complete control).
The mark [26] stands for this setting: Preemergence, visual injury vs untreated controls after approximately 10 d, read-out: Barnyardgrass plant response rating (0 to 100 scale where 0 is no effect and 100 is complete control).
The mark [27] stands for this setting: Preemergence, visual injury vs untreated controls after approximately 10 d, read-out: Foxtail, Giant plant response rating (0 to 100 scale where 0 is no effect and 100 is complete control).
The mark [28] stands for this setting: Preemergence, visual injury vs untreated controls after approximately 10 d, read-out: Ragweed plant response rating (0 to 100 scale where 0 is no effect and 100 is complete control).
Setting [29] is: Preemergence, visual injury vs untreated controls after approximately 10 d, read-out: Ryegrass, Italian plant response rating (0 to 100 scale where 0 is no effect and 100 is complete control).

Read-outs that look alike come from different tables or passages of the source.

Consider `Cc1cc([C@H]2CNC(=O)[C@@H]2C(=O)Nc2ccc(F)cc2F)ccc1C(F)(F)F` [Compound 1043], for which the pest or weed control at 125 g/ha stood at 60% with Kochia (Kochia scoparia) (setting [5]); 80% in assay [1] (setting [7]); 70% in assay [2] (setting [9]); 0% in assay [3] (setting [11]); 20% in assay [4] (setting [13]). Further, the pest or weed control at 500 g/ha in the assay on Kochia (Kochia scoparia) (setting [6]) stood at 70%; in assay [1] (setting [8]) it was 90%; in assay [2] (setting [10]), 90%; in assay [3] (setting [12]), 50%; in assay [4] (setting [14]), 50%.
Turning to `O=C(Nc1ccccc1F)[C@H]1C(=S)NC[C@@H]1c1ccc(C(F)(F)F)cc1` (racemic) [Compound 1047], the pest or weed control at 125 g/ha with Kochia (Kochia scoparia) (setting [5]) worked out at 60%; in assay [1] (setting [7]), 30%; in assay [2] (setting [9]), 60%; in assay [3] (setting [11]) it was 40%; in assay [4] (setting [13]), 0%. For the same compound, the pest or weed control at 500 g/ha with Kochia (Kochia scoparia) (setting [6]) was found to be 80%; in assay [1] (setting [8]), 80%; in assay [2] (setting [10]), 80%; in assay [3] (setting [12]) it was 60%; in assay [4] (setting [14]), 0%.
As to `CN1C[C@H](c2cc(C(F)F)cs2)[C@@H](C(=O)Nc2cccc(F)c2F)C1=O` [Compound 1121], the pest or weed control at 125 g/ha with Kochia (Kochia scoparia) (setting [15]) came to 80%; in assay [1] (setting [17]), 90%; in assay [2] (setting [18]) it was 90%; in assay [3] (setting [20]), 50%; in assay [4] (setting [22]) it was 50%. Moreover, the pest or weed control at 500 g/ha with Kochia (Kochia scoparia) (setting [16]) is 100%; in assay [1] (setting [8]), 100%; in assay [2] (setting [19]), 100%; in assay [3] (setting [21]), 100%; in assay [4] (setting [23]), 60%.
Take `Cc1ccc([C@H]2CCN(C)C(=O)[C@@H]2C(=O)Nc2ccc(F)c(F)c2F)cc1` [Compound 1221]: the pest or weed control at 125 g/ha amounted to 40% with Kochia (Kochia scoparia) (preemergence, visual injury rating, 0 to 100 scale where 0 is no effect and 100 is complete control, approximately 10 d, read-out: Kochia plant response rating); 90% in assay [1] (preemergence, visual injury rating, 0 to 100 scale where 0 is no effect and 100 is complete control, approximately 10 d, read-out: Barnyardgrass plant response rating); 90% in assay [2] (preemergence, visual injury rating, 0 to 100 scale where 0 is no effect and 100 is complete control, approximately 10 d, read-out: Foxtail, Giant plant response rating); 20% in assay [3] (preemergence, visual injury rating, 0 to 100 scale where 0 is no effect and 100 is complete control, approximately 10 d, read-out: Ragweed plant response rating); 20% in assay [4] (preemergence, visual injury rating, 0 to 100 scale where 0 is no effect and 100 is complete control, approximately 10 d, read-out: Ryegrass, Italian plant response rating). For the same compound, the pest or weed control at 500 g/ha in the assay on Kochia (Kochia scoparia) (setting [16]) turned out to be 50%; in assay [1] (setting [24]), 100%; in assay [2] (setting [19]) it was 100%; in assay [3] (setting [21]), 70%; in assay [4] (setting [23]) it was 80%.
For the compound `O=C1NC[C@H](c2ccc3c(c2)CCO3)[C@H]1C(=O)Nc1ccc(F)cc1F` [Compound 902], the pest or weed control at 125 g/ha with Kochia (Kochia scoparia) (setting [16]) came out at 0%; in assay [1] (setting [24]), 40%; in assay [2] (setting [19]) it was 30%; in assay [3] (setting [21]) it was 0%; in assay [4] (setting [23]), 0%. Also, the pest or weed control at 500 g/ha was determined as 0% in the assay on Kochia (Kochia scoparia) (setting [25]); 90% in assay [1] (setting [26]); 90% in assay [2] (setting [27]); 0% in assay [3] (setting [28]); 20% in assay [4] (setting [29]).
Take `O=C1NC[C@H](c2csc(C(F)F)c2)[C@H]1C(=O)Nc1ccccc1F` [Compound 1118]: the pest or weed control at 125 g/ha with Kochia (Kochia scoparia) (setting [15]) worked out at 0%; in assay [1] (setting [17]), 80%; in assay [2] (setting [18]), 60%; in assay [3] (setting [20]), 20%; in assay [4] (setting [22]), 40%. The pest or weed control at 500 g/ha in the assay with Kochia (Kochia scoparia) (setting [16]) was 70%; in assay [1] (setting [8]) it was 90%; in assay [2] (setting [19]), 90%; in assay [3] (setting [21]), 60%; in assay [4] (setting [23]), 50%.
Regarding `Cc1c(F)ccc([C@H]2CN(C)C(=O)[C@@H]2C(=O)Nc2ccccc2F)c1F` [Compound 833], the pest or weed control at 125 g/ha in the assay with Kochia (Kochia scoparia) (setting [16]) came to 70%; in assay [1] (setting [24]), 90%; in assay [2] (setting [19]), 90%; in assay [3] (setting [21]), 0%; in assay [4] (setting [23]) it was 70%. The pest or weed control at 500 g/ha in the assay on Kochia (Kochia scoparia) (setting [25]) worked out at 80%; in assay [1] (setting [26]) it was 90%; in assay [2] (setting [27]) it was 100%; in assay [3] (setting [28]), 20%; in assay [4] (setting [29]) it was 80%.

For the origin of these results see patent US12077503B2, “Substituted cyclic amides and their use as herbicides” (FMC CORPORATION, priority 2015, dated 2024).
